Test results as given in patent publication EP4752149A1, “OXYGEN-CONTAINING FUSED TRICYCLIC DERIVATIVE, AND PREPARATION METHOD THEREFOR AND USE THEREOF” (Tuojie Biotech (Shanghai) Co., Ltd., priority 2023, dated 2025).

Experiments:
[1] = system: Triple-negative breast cancer cells (HCC1806); assay: Inhibitory activity against triple-negative breast cancer cells (HCC1806), CTG cell viability; format: cell-based; conditions: Homo sapiens, 168 h, 7 days with compound
Procedure: Triple-negative breast cancer cells (HCC1806, Nanjing Cobioer Biosciences Co., Ltd.) were cultured using an RPMI 1640 culture medium containing 10% FBS in a cell incubator (37 °C, 5% CO2). On day one, the cells were plated in a 384-well plate at a cell concentration of 200 cells/well and cultured overnight in an incubator. On day two, the cells were treated with compounds. The highest compound concentration was 10 µM and was diluted 3-fold to obtain 9 concentrations, and the final concentration of DMSO was 0.2%. After the cells were cultured in the incubator for another 7 days, the cell viability was tested using a CTG Cell Viability Detection Reagent (MCE); the testing method was consistent with the method provided by the kit. Data were processed using XLfit, and IC50 was calculated. [formula] X: the logarithm of the compound concentration; Y: inhibition%. Table 4. The IC50 (nM) of compounds of the present disclosure against HCC1806

[2] = target: T1, CDK2/CycE1 (Homo sapiens, UniProt P24941); assay: Activity against cyclin-dependent kinase CDK2/CycE1 (Caliper EZ Reader mobility shift); format: biochemical; conditions: 1 h at room temperature; highest concentration 1 µM
T1 construct: purchased Carna 04-165
Procedure: (§1) The test compounds (the highest concentration was 1 µM) were added using Echo 650 and serially diluted 3-fold to obtain a total of 9 concentration points. The assay plate was sealed and centrifuged at 1000 g for 1 min. 2.5× enzymes were prepared in a 1× kinase buffer (50 mM HEPES, pH 7.5, 0.0015% Brij-35, […]), and the 2.5× enzymes (10 µL) were added to the 384-well assay plate. The plate was centrifuged at 1000 g for 30 s and left to stand at room temperature for 10 min. 2.5× substrate and ATP mixtures were prepared in the 1× kinase buffer, and the 2.5× substrate and ATP mixtures (10 µL) were added to start reactions. The assay plate was centrifuged at 1000 g for 30 s, sealed, and incubated at room temperature for 1 h. 25 µL of a stop solution reagent (100 mM HEPES, pH 7.5, 0.015% Brij-35, 0.2% Coating Reagent #3, 50 mM EDTA) was added.
(§2) Conversion rate data were read on a CaliperEZ Reader. The conversion rate data were copied from the CaliperEZ Reader. The conversion rates were converted to inhibition rate data. Inhibition% = (max−conversion)/(max−min) × 100, [formula] where "min" is the reading of a control sample well to which no enzyme was added for reaction; "max" is the reading of a control well to which DMSO was added.
(§3) IC50 values were obtained by fitting using XLFit excel add-in version 5.4.0.8. Y = Bottom + (Top−Bottom)/(1+((IC50/X))^(∧)HillSlope). [formula] Table 6. […]

[3] = target: T2, CDK4/CycD1 (Homo sapiens, UniProt P11802); assay: Activity against cyclin-dependent kinase CDK4/CycD1 (Caliper EZ Reader mobility shift); format: biochemical; conditions: 1 h at room temperature; highest concentration 1 µM
T2 construct: purchased Invitrogen PR8064A
T2 sequence (P11802 whole entry): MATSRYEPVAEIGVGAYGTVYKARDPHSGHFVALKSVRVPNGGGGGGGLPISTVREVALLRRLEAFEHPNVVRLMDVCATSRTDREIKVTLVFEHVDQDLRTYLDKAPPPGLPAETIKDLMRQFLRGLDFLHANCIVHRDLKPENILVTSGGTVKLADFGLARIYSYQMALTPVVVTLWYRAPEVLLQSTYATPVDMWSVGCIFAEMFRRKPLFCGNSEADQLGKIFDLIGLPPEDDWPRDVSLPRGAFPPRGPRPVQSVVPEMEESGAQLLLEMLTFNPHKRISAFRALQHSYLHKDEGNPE
T2 sequence (P24385 whole entry partner): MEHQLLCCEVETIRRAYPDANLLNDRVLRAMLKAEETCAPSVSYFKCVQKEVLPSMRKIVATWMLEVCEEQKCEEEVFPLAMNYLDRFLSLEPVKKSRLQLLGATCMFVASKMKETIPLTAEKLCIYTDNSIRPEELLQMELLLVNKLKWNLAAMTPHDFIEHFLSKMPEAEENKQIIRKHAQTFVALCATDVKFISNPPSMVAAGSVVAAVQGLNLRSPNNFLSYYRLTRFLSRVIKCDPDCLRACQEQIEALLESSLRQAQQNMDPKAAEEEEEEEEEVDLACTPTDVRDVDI
Procedure: as §1, §2, §3

[4] = system: Human breast cancer cells (MDA-MB-231); assay: Inhibitory activity against human breast cancer cells (MDA-MB-231), CTG cell viability; format: cell-based; conditions: Homo sapiens, 168 h, 7 days with compound
Procedure: (§4) Human breast cancer cells (MDA-MB-231) were cultured using a DMEM culture medium containing 10% FBS in a cell incubator (37 °C, 5% CO2). On day one, the cells were plated in a 384-well plate at a cell concentration of 600 cells/well and cultured overnight in an incubator. On day two, the cells were treated with compounds. The highest compound concentration was 10 µM and was diluted 3-fold to obtain 9 concentrations, and the final concentration of DMSO was 0.2%. After the cells were cultured in the incubator for another 7 days, the cell viability was tested using a CTG Cell Viability Detection Reagent; the testing method was consistent with the method provided by the kit. Data were processed using XLFit, and IC50 was calculated. [formula] X: the logarithm of the compound concentration; Y: % inhibition. Table 8. The IC50 (nM) of a compound of the present disclosure against MDA-MB-231

[5] = system: Human non-small cell lung cancer cells (A549); assay: Inhibitory activity against human non-small cell lung cancer cells (A549), CTG cell viability; format: cell-based; conditions: Homo sapiens, 120 h, 5 days with compound
Procedure: (§5) Human non-small cell lung cancer cells (A549) were cultured using an F12K culture medium containing 10% FBS in a cell incubator (37 °C, 5% CO2). On day one, the cells were plated in a 384-well plate at a cell concentration of 300 cells/well and cultured overnight in an incubator. On day two, the cells were treated with compounds. The highest compound concentration was 10 µM and was diluted 3-fold to obtain 9 concentrations, and the final concentration of DMSO was 0.2%. After the cells were cultured in the incubator for another 5 days, the cell viability was tested using a CTG Cell Viability Detection Reagent; the testing method was consistent with the method provided by the kit. Data were processed using XLFit, and IC50 was calculated. [formula] X: the logarithm of the compound concentration; Y: % inhibition. Table 10. The IC50 (nM) of a compound of the present disclosure against A549

[6] = system: Human prostate cancer cells (22RV1); assay: Inhibitory activity against human prostate cancer cells (22RV1), CTG cell viability; format: cell-based; conditions: Homo sapiens, 120 h, 5 days with compound
Procedure: as §5, with “prostate” for “non-small cell lung”, “(22RV1)” for “(A549)”, “RPMI 1640” for “F12K”, “500” for “300”, “12.” for “10.”, “22RV1” for “A549”

[7] = system: Human breast cancer cells (SUM-149PT); assay: Inhibitory activity against human breast cancer cells (SUM-149PT), CTG cell viability; format: cell-based; conditions: Homo sapiens, SUM149PT, 120 h, 5 days with compound
Procedure: as §4, with “cells (SUM-149PT)” for “cells (MDA-MB-231)”, “of 800” for “of 600”, “another 5” for “another 7”, “Table 14.” for “Table 8.”, “against SUM-149PT” for “against MDA-MB-231”

Question: With `C[C@H]1COc2c(-c3nc(Nc4ccc(N5CCOCC5=O)cc4F)ncc3Cl)cc(F)c3nc(C(C)(C)O)n1c23` [Example 1, (S)-4-(4-((5-Chloro-4-(8-fluoro-2-(2-hydroxypropan-2-yl)-3-methyl-3,4-dihydro-5-oxa-1,2a-diazaacenaphthylen-6-yl)pyrimidin-2-yl)amino)-3-fluorophenyl)morpholin-3-one] as the compound, how does the IC50 [1] read?
Answer: 150 nM

Question: And the IC50 [2]?
Answer: 9.8 nM

Question: And the IC50 [3]?
Answer: 3.8 nM

Question: And the IC50 [4]?
Answer: 117 nM

Question: And the IC50 [5]?
Answer: 236 nM

Question: And the IC50 [6]?
Answer: 80.3 nM

Question: And the IC50 [7]?
Answer: 256 nM
